Data: article PMC9824296, “Functional Characterization of Three Diterpene Synthases Responsible for Tetracyclic Diterpene Biosynthesis in Scoparia dulcis” (Plants, 2022)

What was measured:
SdCPS2 = molecular target: T1, SdCPS2 (Scoparia dulcis, UniProt A0A1U8XUA9); experiment: GC-MS of n-hexane extract of recombinant E. coli cultures; format: cell-based; conditions: GGPP supplied by co-expressed SdGGPPS; 16 °C; product seen as dephosphorylated alcohol
T1 construct: gene CPS2; full ORF 2412 bp, 804 residues
T1 sequence (A0A1U8XUA9 81-804): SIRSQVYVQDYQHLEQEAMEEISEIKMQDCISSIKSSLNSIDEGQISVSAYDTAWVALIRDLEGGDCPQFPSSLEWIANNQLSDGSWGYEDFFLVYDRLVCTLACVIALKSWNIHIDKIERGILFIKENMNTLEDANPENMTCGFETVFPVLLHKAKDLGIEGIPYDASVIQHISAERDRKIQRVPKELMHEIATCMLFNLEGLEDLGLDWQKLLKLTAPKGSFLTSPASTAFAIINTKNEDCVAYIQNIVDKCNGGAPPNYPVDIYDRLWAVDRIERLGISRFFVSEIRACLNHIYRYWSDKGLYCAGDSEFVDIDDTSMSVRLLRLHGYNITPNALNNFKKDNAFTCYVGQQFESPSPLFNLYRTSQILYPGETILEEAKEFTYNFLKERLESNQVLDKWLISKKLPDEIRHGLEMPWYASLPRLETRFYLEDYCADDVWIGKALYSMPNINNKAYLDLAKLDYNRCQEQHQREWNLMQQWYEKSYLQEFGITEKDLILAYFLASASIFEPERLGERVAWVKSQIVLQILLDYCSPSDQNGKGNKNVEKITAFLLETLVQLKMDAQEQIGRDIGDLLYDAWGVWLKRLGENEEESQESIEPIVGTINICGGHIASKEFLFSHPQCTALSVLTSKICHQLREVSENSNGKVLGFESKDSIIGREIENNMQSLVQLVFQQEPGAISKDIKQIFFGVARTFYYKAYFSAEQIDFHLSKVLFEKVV

OsKSL4 = molecular target: T2, OsKSL4 (Oryza sativa, UniProt Q0JEZ8); experiment: as above; format: cell-based; conditions: reference enzyme; syn-CPP supplied by co-expressed SdCPS2 or OsCPS4 with SdGGPPS; 16 °C; product 7
T2 construct: gene KSL4; in pET28b (NcoI/NotI), expressed in E. coli C41
T2 sequence (Q0JEZ8 57-842): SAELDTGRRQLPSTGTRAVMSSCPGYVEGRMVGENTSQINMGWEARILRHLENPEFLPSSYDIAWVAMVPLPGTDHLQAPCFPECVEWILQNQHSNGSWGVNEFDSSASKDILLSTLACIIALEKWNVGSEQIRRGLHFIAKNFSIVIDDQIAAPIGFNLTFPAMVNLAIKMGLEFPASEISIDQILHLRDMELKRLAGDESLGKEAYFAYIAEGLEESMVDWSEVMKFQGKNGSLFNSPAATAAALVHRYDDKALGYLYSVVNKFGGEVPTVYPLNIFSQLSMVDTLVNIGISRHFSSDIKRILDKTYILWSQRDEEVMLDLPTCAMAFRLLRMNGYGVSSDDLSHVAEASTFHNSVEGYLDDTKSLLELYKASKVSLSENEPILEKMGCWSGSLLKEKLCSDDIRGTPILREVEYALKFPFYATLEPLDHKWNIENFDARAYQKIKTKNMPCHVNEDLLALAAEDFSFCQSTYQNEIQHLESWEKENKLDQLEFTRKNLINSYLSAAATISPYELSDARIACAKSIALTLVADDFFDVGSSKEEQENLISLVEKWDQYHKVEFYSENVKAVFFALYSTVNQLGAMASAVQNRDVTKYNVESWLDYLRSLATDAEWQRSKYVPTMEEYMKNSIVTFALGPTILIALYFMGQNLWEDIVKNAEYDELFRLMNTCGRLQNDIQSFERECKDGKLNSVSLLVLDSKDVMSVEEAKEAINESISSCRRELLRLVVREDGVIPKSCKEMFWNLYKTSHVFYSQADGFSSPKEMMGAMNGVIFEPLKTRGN

| Compound | GC-MS of n-hexane extract of recombinant E. coli cultures (SdCPS2) | GC-MS of n-hexane extract of recombinant E. coli cultures (OsKSL4) |
| --- | --- | --- |
| CC(C)=CCC/C(C)=C/CC/C(C)=C/CC/C(C)=C/COP(=O)(O)OP(=O)(O)O [compound 2, geranylgeranyl diphosphate] | The SdCPS2 catalyzed a cyclization reaction from GGPP to syn-CPP | – |
| C=C1CC[C@H]2C(C)(C)CCC[C@]2(C)[C@@H]1CC/C(C)=C/COP(=O)(O)OP(=O)(O)O [compound 3, syn-copalyl diphosphate] | – | SdCPS2 could be cyclized by OsKSL4, whose substrate is a syn-copalyl diphosphate |
